According to patent publication US20250134902A1, “DRUG REPURPOSING FOR DELAYED TREATMENT OF ISCHEMIC STROKE” (UNIVESRITY OF NORTH TEXAS HEALTH SCIENCE CENTER, priority 2022, published 2025):
Read-outs that look alike come from different tables or passages of the source. One block for each molecule: values may come before it.

What was measured:
[1] = molecular target: T1, human Sigma-1 receptor (S1R) (Homo sapiens, UniProt Q99720); experiment: Radioligand competition binding at Sigma-1 receptor ([3H]-(+)-pentazocine, MCF-7-hS1R)
T1 construct: expressed in transfected cells
T1 sequence (Q99720 whole entry): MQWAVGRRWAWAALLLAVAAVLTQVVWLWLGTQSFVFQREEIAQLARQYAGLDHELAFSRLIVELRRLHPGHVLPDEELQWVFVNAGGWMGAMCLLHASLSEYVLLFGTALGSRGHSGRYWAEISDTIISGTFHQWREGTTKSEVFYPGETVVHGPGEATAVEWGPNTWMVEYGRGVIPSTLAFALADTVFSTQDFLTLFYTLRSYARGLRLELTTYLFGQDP
Procedure: Measuring receptor density with radioligand binding.
Measuring the ligand affinities at SIR and S2R receptors by radioligand binding. […] Binding conditions were the same as described previously for the S1R (Schetz, et al., 2007): binding buffer (Tris 50 mM, pH=8.1 at 37° C.), ice-cold wash buffer (Tris 10 mM, pH=8.1 at 0-2° C.), and incubation time (3 hrs at 37° C.) with shaking. Non-specific binding for the S1R and S2R was determined in the presence of 5 μM BD1063 and […] haloperidol, respectively. Following incubation, receptors were collected via rapid filtration through GF/C filters (Brandel, Gaithersburg, MD) followed by washing three times with 3 mL of ice-cold wash buffer. Dried filters were transferred to vials filled with 3.5 ml of scintillation fluid, and the radioactivity was quantified on a liquid scintillation analyzer (TRICARB® 2800TR) from Perkin Elmer (Saint Louis, MO). Mean values from duplicate or triplicate determinations are reported along with their associated standard error of the mean (SEM). Ki values were calculated from IC50 values using the Cheng-Prusoff equation. The concentration of membrane protein was determined using a PIERCE® BCA Protein Assay kit (Life Technologies, Grand Island, NY) following the manufacturer's protocol.
Referring to FIG. 1, the selectivity of potential S1R ligands over S2R was empirically evaluated. Human MCF-7 cells were used as the source of the S2R because these cells express the endogenous S2R (Vilner, John, et al., 1995; Wu & Bowen, 2008) but lack detectable levels of the S1R, allowing unambiguous detection of S2R activity in untransfected cells (Schetz, et al., 2007). MCF-7 cells stably expressing the cloned human S1R were used as the source of S1R.

neuronal MN9D cell line = experiment: BDNF secretion via in situ ELISA; assay type: cell-based; conditions: MN9D cells; for Efficacy of BDNF secretion: 24 hrs, normalized to maximal response of 10 μM 4-PPBP, mean ± SEM, asterisk = significantly different from 4-PPBP
Source text: Measuring BDNF secretion via in situ ELISA. […] The in situ ELISA improves on traditional ELISA by seeding BDNF-secreting cells directly into the wells pre-coated with an anti-BDNF primary antibody. BDNF secreted by these cells is immediately captured by the primary antibody, drastically increasing the sensitivity and reproducibility of the ELISA assay. Intact cells are removed […] the addition of the secondary and tertiary antibodies. The amount of BDNF secreted from the neuronal MN9D cells was quantified using an in situ ELISA assay developed using the BDNF EMAX® ImmunoAssay kit (Cat. No. G7611, Promega, Madison, WI). Briefly, a NUNC™ MAXISORP™ flat-bottom, polystyrene, 96-well immunoplate was coated for 48 hrs at 4° C. with an anti-BDNF monoclonal antibody diluted 1:1000 v/v in carbonate buffer containing 25 mM sodium bicarbonate and 25 mM sodium carbonate, pH 9.7. Unbound antibody was removed by washing 5 times with 150 μL of TBST buffer (20 mM Tris-HCl, pH7.6, 150 mM NaCl, and 0.05% (v/v) TWEEN® 20), before blocking non-specific sites first with blocking buffer for 1 hr and then with culture medium for 2 hrs. Cells were seeded at 35,000 cells per well and incubated overnight at 37° C. in a humidified CO2 incubator. The following day, the wells were replaced with fresh culture media containing either experimental compounds or vehicle controls, then incubated for an additional 24 hours. In addition, on the same plate, but in separate wells, BDNF standards were added ranging in concentration from 15.6-250 pg/mL. After 24 hrs incubation with experimental compounds, the media was aspirated and 100 μL of Dulbecco's phosphate saline (D-PBS without Ca^2+ and Mg^2+ supplemented with 5 mM EDTA) was added to each well and incubated for 15 min at 37° C. to promote cell lifting. Cells were then detached from the bottom of wells by triturating in the center and around the edges of the well. After removing all cell debris, the wells were rinsed five times with 150 μL of TBST. The plate was then incubated with 1:500 v/v diluted polyclonal anti-human BDNF antibody for 2 hrs at room temperature. This antibody was removed, and wells were washed five times with 150 μL of TBST, before incubating with 1:200 v/v diluted polyclonal Anti-IgY HRP conjugate for 2 hrs at room temperature. Wells were then washed five times with 150 μL of TBST and the remaining specifically bound polyclonal antibody was detected with the 50 μL colorimetric HRP substrate 3,3′,5,5′-Tetramethylbenzidine (TMB). The reaction was terminated with 50 μL of 1 M HCl and the color intensity was quantified by measuring the absorbance at 450 nm using a FLEXSTATION® 3 plate reader (Molecular Devices, Sunnyvale, CA). […] A one-way ANOVA with a Bonferroni multiple comparisons post-hoc analysis (P<0.05) was applied to determine significant differences between groups.
Further, BDNF secreted from MN9D cells can be detected 24 hours after treatment with S1R ligand, whereas BDNF secreted from the B104 cell line takes 7 days to be detected (Fujimoto, et al., 2012).
An in situ ELISA approach was utilized because of its improved sensitivity related to its rapid capture of secreted BDNF (Balkowiec & Katz, 2000; Dalwadi, et al., 2017). […] Values are averages of 2-10 experiments±SEM, and each experiment was performed in triplicate. Statistical significance at P<0.05 was determined by ANOVA followed by a Bonferroni's post-hoc test and are marked with an asterisk.

rat blood = experiment: Clotting (streak) assay of thrombotic potential
Procedure: Clotting assays. Thrombotic potential was assessed with trunk blood from donor rats using a protocol modified from Kim et al. (Kim et al., 2010). Oxeladin was compared to whole blood with or without the anticoagulant benzamidine and several other S1R ligands at doses 10× greater than those that stimulate the release of BDNF (Dalwadi et al., 2022; Dalwadi et al., 2017). Blood was rapidly collected into chilled, pre-weighed plastic tubes containing a known quality of EDTA disodium salt (>3.7 mM) electrostatically-coated onto the tube wall. Blood was prevented from coagulating by gently swirling the chilled EDTA-coated tube. The tube was weighed and the volume of collected blood calculated in order to compute the exact concentration of EDTA in the uncoagulated blood sample allowing us to determine which concentration of calcium to add back into the blood to initiate coagulation. Uncoagulated blood samples were stored chilled. The following was be dispensed into NUNC™ MICROWELL™ MiniTrays: 8 μL/well of normal saline containing a concentration of calcium 1.2 mM higher than that of the concentration of EDTA in the blood sample, 1 μL/well of oxeladin, 3 mM benzamidine anticoagulant positive control, or untreated or vehicle negative controls, and 1 μL/well of (EDTA-treated) uncoagulated rat blood. Plates were tilted at a 45° angle at 5, 15, 30, 45 and 60 minutes to observe coagulation (i.e., no streaking) and compared to the controls. Each triplicate well was scored by a treatment-blinded observer as Yes (coagulation, no streaking) or No (no coagulation, streaking). The experiment was repeated with two separate donor rats.
Referring to FIG. 5, the effect on thrombotic activity of test drugs, benzamidine anticoagulant positive control, or untreated or vehicle negative controls on whole blood from donor rats was assessed by tilting treated blood samples at a […] to observe coagulation (i.e., no streaking) between […] (top panel). Blood coagulation was represented by a value between 1 (no streaking, coagulation) and 0 (streaking, less or no coagulation), and values were assigned for each test drug, benzamidine, and untreated and vehicle controls (bottom panel). Quantitative results from these clotting assays, including coagulation half-life, are summarized below in Table 5.

[2] = displacement of 0.5 nM [3H]-(+)-pentazocine, MCF-7 cells expressing human S1R, average of 2-3 experiments ± SEM, read-out: S1R affinity (Ki)

Structure (SMILES): CCC(C(=O)OCCOCCN(CC)CC)c1ccccc1 (stereo not drawn) [Butamirate]
- selective for S1R over S2R [1]: 10 fold
- Ki [1, 2]: 17.2 ± 1.7 nM
- S2R/S1R ratio (Ki S2R/Ki S1R) ([1]; selectivity for S1R over S2R): 10
- stimulation of BDNF secretion (neuronal MN9D cell line; 10 μM): With the exception of butamirate, all compounds were able to stimulate BDNF release

- selective for S1R over S2R [1]: 5 fold
- Ki ([1]; receptor not given, S1R implied, read-out: affinity): 157 nM
- effect on thrombosis in blood (rat blood): do not alter thrombosis
Structure (SMILES): CC(CN1c2ccccc2Sc2ccccc21)N(C)C (stereo not drawn) [Promethazine]
- Efficacy of BDNF secretion (neuronal MN9D cell line; 10 μM): 1.09 ± 0.34

Structure (SMILES): CN1CCN(CCc2ccc(Cl)c(Cl)c2)CC1 [BD1063]
- reversal of S1R agonist-induced BDNF secretion (neuronal MN9D cell line; 15 nM antagonist): reversed

- Coagulation Half-Life (λ1/2 ± SD) (rat blood; 3000 μM, rat blood, positive control): >1,440 minutes
- Coagulation Half-Life (λ1/2 ± SD) (rat blood; 3000 μM, rat blood, positive control, listed as positive control): > 1,440 minutes
Structure (SMILES): N=C(N)c1ccccc1 [Benzamidine]

Structure (SMILES): Clc1ccc(N2CCN(Cc3c[nH]c4ncccc34)CC2)cc1 [L-745, 870]
- Coagulation Half-Life (λ1/2 ± SD) (rat blood; rat): 11 ± 6 min

- Coagulation Half-Life (λ1/2 ± SD) (rat blood; rat): 19 ± 16 min
Structure (SMILES): CCC(C/C=C/c1ccccc1)(c1ccccc1)N(C)CC1CC1 (single isomer, unassigned; (+)) [(+)-igmesine]
- Efficacy of BDNF secretion (neuronal MN9D cell line; 10 μM): 0.42 ± 0.03

Structure (SMILES): OC(CCCN1CCC(O)(c2ccc(Cl)cc2)CC1)c1ccc(F)cc1 (stereo not drawn) [Haloperidol Metabolite II]
- Coagulation Half-Life (λ1/2 ± SD) (rat blood; 100 μM, rat blood): 14 ± 11 min

Structure (SMILES): O=C(OCCN1CCOCC1)C1(c2ccccc2)CCCCC1 [PRE-084]
- stimulation of BDNF secretion (neuronal MN9D cell line; 10 μM): failed to stimulate BDNF secretion

Structure (SMILES): c1ccc(CCCCN2CCC(c3ccccc3)CC2)cc1 [4-PPBP]
- Coagulation Half-Life (λ1/2 ± SD) (rat blood; 100 μM, rat blood): 11 ± 6 min
- Efficacy of BDNF secretion (neuronal MN9D cell line; 10 μM): 1
- BDNF secreted, maximal stimulation (neuronal MN9D cell line; 10 μM, averaged ± SEM, n=3-10, baseline 75.4±6.9): 128.6 ± 12.8 pg/mL

- Coagulation Half-Life (λ1/2 ± SD) (rat blood; rat): 11 ± 6 min
Structure (SMILES): Cc1c(C2CCN(CCc3ccccc3)CC2)noc1-c1ccc(Cl)cc1 [L-741, 742]

- Coagulation Half-Life (λ1/2 ± SD) (rat blood; rat): 11 ± 6 min
Structure (SMILES): COc1ccc(CCN2CCN(CCCc3ccccc3)CC2)cc1OC [SA4503]

Structure (SMILES): CCN(CC)CCOCCOC(=O)C1(c2ccccc2)CCCC1 [Carbetapentane]
- Ki [1, 2]: 19.8 ± 2.3 nM
- Coagulation Half-Life (λ1/2 ± SD) (rat blood; rat): 23 ± 18 min
- Efficacy of BDNF secretion (neuronal MN9D cell line; 10 μM): 0.73 ± 0.05
